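Growth conditions: 96-well plates. Treatment: test compound, 48 hours, 5 concentrations. Analysis: linear interpolation between bracketing concentrations; unreached endpoints set to highest concentration. The concentration for 50% growth inhibition is given as GI50.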 Active and inactive are the calls of the source. Rule as the data show it: active = GI50 up to about 1.1 µM and inactive = higher.
Columns and labels:
Assay in all cases: NCI-60 cell line screen, 48 h
Malme-3M = test system: Malme-3M
HOP-92 = test system: HOP-92
SNB-75 = test system: SNB-75
MOLT-4 = test system: MOLT-4
HT-29 = test system: HT-29
SF-295 = test system: SF-295
SK-MEL-5 = test system: SK-MEL-5
NCI-H226 = test system: NCI-H226
A498 = test system: A498
UACC-62 = test system: UACC-62
HL-60 = test system: HL-60
OVCAR-3 = test system: OVCAR-3
UACC-257 = test system: UACC-257
RXF 393 = test system: RXF 393
HCC 2998 = test system: HCC 2998
OVCAR-5 = test system: OVCAR-5
OVCAR-4 = test system: OVCAR-4

Measured: GI50

CC1Oc2c(c(O)cc3oc(=O)cc(-c4ccccc4)c23)C(=O)C1C (configuration not stated)
inactive: Malme-3M > 100 µM | HOP-92 > 100 µM | SNB-75 > 100 µM | MOLT-4 > 100 µM | HT-29 > 10 µM | SF-295 > 100 µM | SK-MEL-5 > 100 µM | NCI-H226 > 100 µM | A498 > 100 µM | UACC-62 > 100 µM | HL-60 > 100 µM | OVCAR-3 > 100 µM

Cc1cc(C)nc(NS(=O)(=O)c2ccc(Nc3c4ccccc4nc4c(C(=O)N5CCN(CCOS(C)(=O)=O)CC5)cccc34)cc2)n1
inactive: Malme-3M > 100 µM | HOP-92 > 100 µM | SNB-75 49.9 µM | UACC-257 > 100 µM | MOLT-4 60.3 µM | HT-29 > 100 µM | SF-295 > 100 µM | SK-MEL-5 > 100 µM | RXF 393 > 100 µM | NCI-H226 > 100 µM | A498 > 100 µM | HCC 2998 > 100 µM | UACC-62 > 100 µM | OVCAR-5 > 100 µM | HL-60 > 100 µM | OVCAR-3 96.4 µM | OVCAR-4 > 100 µM

Cc1ccc(S(=O)(=O)N(CC(=O)O)c2ccccc2)cc1
inactive: Malme-3M > 100 µM | HOP-92 > 100 µM | SNB-75 > 100 µM | UACC-257 > 100 µM | MOLT-4 > 100 µM | HT-29 > 100 µM | SF-295 > 100 µM | SK-MEL-5 > 100 µM | RXF 393 > 100 µM | A498 > 100 µM | HCC 2998 > 100 µM | UACC-62 > 100 µM | OVCAR-5 > 100 µM | HL-60 > 100 µM | OVCAR-3 > 100 µM | OVCAR-4 > 100 µM

COc1cccc(C2C(C(=O)O)=C(CO)Oc3cc4c(cc32)OCO4)c1OC (configuration not stated)
inactive: Malme-3M > 100 µM | HOP-92 97.7 µM | SNB-75 > 100 µM | MOLT-4 > 100 µM | SF-295 > 100 µM | SK-MEL-5 > 100 µM | NCI-H226 > 100 µM | A498 > 100 µM | UACC-62 > 100 µM | HL-60 > 100 µM | OVCAR-3 > 100 µM

C=C1C(=O)O[C@H]2[C@H]1[C@@H](OC(=O)C=C(C)C)CC1=C[C@@H](C[C@@]3(C)O[C@@H]23)OC1=O
inactive: Malme-3M 8.04 µM | HOP-92 2.1 µM | SNB-75 18 µM | UACC-257 2.18 µM | MOLT-4 2.15 µM | HT-29 4.14 µM | SF-295 13.4 µM | SK-MEL-5 5.55 µM | RXF 393 1.83 µM | NCI-H226 21.2 µM | A498 7.33 µM | HCC 2998 17.4 µM | UACC-62 3.52 µM | OVCAR-5 16.7 µM | OVCAR-3 1.59 µM | OVCAR-4 6.32 µM

From ChEMBL document CHEMBL1201862, “PubChem BioAssay data set” (2004)
